Assays:
[1] = system: lymphocytes of the mouse; assay: Stimulation in vitro of mouse lymphocytes (tritium-marked thymidine incorporation); type: cell-based, mouse (DBA/2); details: at the optimal concentration; thymidine incorporation in 24 hours with respect to control culture; PHA and PWM
Protocol: Lymphocytes (5×10^5 cells per measurement) extracted from the spleen of inbred mice (DBA/2) are incubated for 36 hours at 37° C. in an atmosphere of oxygen with 5% of CO2 in a culture medium (RPMI 1640) containing:
10% (by weight) of foetal calf serum (100 μl per measurement)
10 μl of a solution of lectins in the proportion of 5 μg/ml of phytohemaglutinine (PHA) and 40 μg/ml of Pokeweed Mitogen (PWM), and
the substance to be tested.
The activity is evaluated by measuring the radio-activity obtained by incorporation in 24 hours of 2 μCi (i.e. 7.4×10^4 becquerels) of tritium-marked thymidine, with respect to a control culture.
The results obtained are grouped together in Table II hereinbelow which gives the optimum concentration of the products in μg/ml, and where symbols +, ++ and +++ signify: […]

[2] = system: mouse; assay: Toxicity (LD-50 and LD-0), i.p. route in the mouse; type: in vivo
Protocol: (§1) The toxicity (LD-50 and LD-0) was determined by the i.p. route in the mouse according to the technique of S. T. Litchfield described in J. Pharm. Exp. Ther. 96, 99 (1949).

[3] = Toxicity (LD-50 and LD-0), i.p. route in the mouse; type: in vivo; details: in vivo, ip
Protocol: as §1

[4] = system: delayed hypersensitivity; assay: Delayed hypersensitivity test; type: in vivo; details: single dose of 5 mg/kg per os, mouse, three days before sensitization
Excerpt: Furthermore, the product of Example 2 (Code No. 442) was studied according to the delayed hypersensitivity test following the modus operandi described by P. H. Lagrange et al., J. Exp. Med. 139, 1529-1539 (1974).

## CC1CCN(c2ccc([N+](=O)[O-])cc2C(=O)c2ccc(Cl)cc2)CC1 [Example 1, [2-(4-methyl-1-piperidinyl)-5-nitrophenyl]-(4-chlorophenyl)-methanone]
[1]
  Stimulation: ++ (stimulation of 50% to 100%)
[2]
  LD-0: > 800 mg/kg

## CC1CCN(c2ccc(N)cc2C(=O)c2ccc(Cl)cc2)CC1 [Example 2, [2-(4-methyl-1-piperidinyl)-5-aminophenyl]-(4-chlorophenyl)-methanone]
[1]
  Stimulation: +++ (stimulation greater than 100%)
[3]
  LD50: 1300 mg/kg
[4]
  reduction of the delayed hypersensitivity: reduction by half

## CCOC(=O)Nc1ccc(N2CCC(C)CC2)c(C(=O)c2ccc(Cl)cc2)c1 [Example 3, [2-(4-methyl-1-piperidinyl)-5-(N-ethoxycarbonyl-amino)-phenyl]-(4-chlorophenyl)-methanone]
[1]
  Stimulation: ++ (stimulation of 50% to 100%)
[2]
  LD-0: > 800 mg/kg

## CC1CCN(c2ccccc2C(=O)c2ccccc2)CC1 [Example 4, [2-(4-methyl-1-piperidinyl)-phenyl]-phenyl-methanone]
[2]
  LD-0: > 800 mg/kg

## CC1CCN(c2ccc(N(C)C)cc2C(=O)c2ccc(Cl)cc2)CC1 [Example 5]
[1]
  Stimulation: + (stimulation of 0 to 50%)
[2]
  LD-0: > 800 mg/kg

## CNc1ccc(N2CCC(C)CC2)c(C(=O)c2ccc(Cl)cc2)c1 [Example 6, [2-(4-methyl-1-piperidinyl)-5-methylamino-phenyl]-(4-chlorophenyl)methanone]
[1]
  Stimulation: + (stimulation of 0 to 50%)
[2]
  LD-0: > 800 mg/kg

## CC1CCN(c2ccc(N)cc2C(=O)c2ccccc2Cl)CC1 [Example 8]
[1]
  Stimulation: + (stimulation of 0 to 50%)
[2]
  LD-0: > 800 mg/kg

## COc1ccc(C(=O)c2cc(N)ccc2N2CCC(C)CC2)cc1OC [Example 9]
[1]
  Stimulation: + (stimulation of 0 to 50%)
[2]
  LD-0: > 800 mg/kg

## Nc1ccc(N2CCCCC2)c(C(=O)c2ccc(Cl)cc2)c1 [Example 12]
[1]
  Stimulation: + (stimulation of 0 to 50%)
[2]
  LD-0: > 800 mg/kg

## CC1CCCN(c2ccc(N)cc2C(=O)c2ccc(Cl)cc2)C1 (centres unmarked) [Example 14]
[1]
  Stimulation: ++ (stimulation of 50% to 100%)

## Cc1ccc(C(=O)c2cc(N)ccc2N2CCC(C)CC2)cc1 [Example 15]
[1]
  Stimulation: ++ (stimulation of 50% to 100%)
[2]
  LD-0: > 800 mg/kg

## Cc1ccc(C(=O)c2cc(N)ccc2N2CCC(C)CC2)c(C)c1 [Example 16]
[1]
  Stimulation: ++ (stimulation of 50% to 100%)
[3]
  LD50: 750 mg/kg

## CC1CCN(c2ccc(N)cc2C(=O)c2ccc(F)cc2)CC1 [Example 17]
[1]
  Stimulation: + (stimulation of 0 to 50%)
[2]
  LD-0: > 800 mg/kg

## CC1CC(C)CN(c2ccc(N)cc2C(=O)c2ccc(Cl)cc2)C1 (centres unmarked) [Example 19]
[1]
  Stimulation: ++ (stimulation of 50% to 100%)
[2]
  LD-0: > 800 mg/kg

## CC1CCCCN1c1ccc(N)cc1C(=O)c1ccc(Cl)cc1 (centres unmarked) [Example 20]
[1]
  Stimulation: +++ (stimulation greater than 100%)
[2]
  LD-0: > 800 mg/kg

## CC1CCN(c2ccccc2C(=O)c2ccc(Cl)cc2)CC1 [Example 21]
[3]
  LD50: 1800 mg/kg

## CC1CCN(c2ccc(Cl)cc2C(=O)c2ccc(Cl)cc2)CC1 [Example 22]
[1]
  Stimulation: + (stimulation of 0 to 50%)
[3]
  LD50: 1800 mg/kg

## COc1ccc(C(=O)c2cc(N)ccc2N2CCC(C)CC2)cc1 [Example 23]
[1]
  Stimulation: ++ (stimulation of 50% to 100%)
[2]
  LD-0: > 800 mg/kg

## COc1ccc(C(=O)c2ccccc2N2CCC(C)CC2)cc1 [Example 24]
[1]
  Stimulation: + (stimulation of 0 to 50%)
[2]
  LD-0: > 800 mg/kg

## CC1CCN(c2ccc(N)cc2C(=O)c2ccccc2)CC1 [Example 27, [2-(4-methyl-1-piperidinyl)-5-aminophenyl]-phenyl-methanone]
[1]
  Stimulation: + (stimulation of 0 to 50%)
[2]
  LD-0: > 800 mg/kg

## CC1CCN(c2ccc(N)cc2C(=O)c2ccc(Cl)c(Cl)c2)CC1 [Example 28]
[1]
  Stimulation: ++ (stimulation of 50% to 100%)
[2]
  LD-0: > 800 mg/kg

## Cc1cc(C(=O)c2cc(N)ccc2N2CCC(C)CC2)cc(C)c1C [Example 29]
[1]
  Stimulation: + (stimulation of 0 to 50%)
[2]
  LD-0: > 800 mg/kg

## CC1CCN(c2ccc(N)cc2C(=O)c2ccc(Br)cc2)CC1 [Example 30]
[2]
  LD-0: > 800 mg/kg

## CC(C)(C)C1CCN(c2ccc(N)cc2C(=O)c2ccc(Cl)cc2)CC1 [Example 31]
[2]
  LD-0: > 800 mg/kg

Source: US4528294A, “Benzoyl-phenyl-piperidine derivatives” (Societe de Recherches Industrielle S.O.R.I., priority 1981, dated 1985)
